Where no end group is shown, it is not given here.
Tests used:
[1] = tested on: thyroparathyroidectomized (TPTX) rats; test: Repeated daily administration in TPTX rats (11‐day treatment, 12‐day study); format: in vivo, rat
Procedure: TPTX rats were injected i.v. or s.c. with vehicle or vehicle containing a PTH peptide, or orally treated once daily with vehicle (medium‐chain triglyceride; Chugai Pharma Manufacturing, Tokyo, Japan) or vehicle containing alfacalcidol (Chugai Pharma Manufacturing) for 11 days. Blood samples were obtained from the tail or jugular vein immediately before and at times after injection. Urine samples at 0 to 8 hours or 8 to 24 hours, were collected in metabolic cages. sCa and uCa, serum inorganic phosphorus (sPi) and urinary phosphorus (uPi), and creatinine (uCre) were measured with an automatic analyzer (7180; Hitachi, Ltd, Chiyoda, Tokyo, Japan). Urinary deoxypyridinoline (uDpD) was measured using a Metra DPD EIA kit (DS Pharma Biomedical, Osaka, Japan), and the data were normalized to the uCre concentrations. Serum FGF23 was measured using FGF23 ELISA assay (Immunodiagnostik AG, Bensheim, Germany). Serum 1,25‐dihydroxyvitamin D [1,25(OH)2D3] levels were determined by a ELISA immunoassay (Immunodiagnostic System Ltd, Bolden, UK).
Figure 4 Effects of 11‐day treatment (12‐day study) with M‐PTH/PTHrP or alfacalcidol on serum calcium (sCa) in thyroparathyroidectomized (TPTX) rats. TPTX rats were treated for 11 days with daily s.c. injection of either vehicle or M‐PTH/PTHrP, or with daily oral alfacalcidol at the indicated doses, and sham‐surgery control rats were s.c. injected daily with vehicle. The levels of Ca in serum and urine were assessed. Blood samples were collected from the jugular vein at 8 hours (A) and at 24 hours (B) after the last treatment administration, and assessed for total sCa. Total urine was collected in metabolic cages over the time intervals of 0 to 8 hours (C), and 8 to 24 hours (D) and assessed for total urinary Ca. Data are means ± SEM; n = 6 or 5 (2.0 and 4.0 nmol/kg of M‐PTH/PTHrP); *p < 0.05 M‐PTH/PTHrP versus TPTX‐vehicle; #p < 0.05 TPTX vehicle versus sham.
Supplementary file JBM4-4-e10367-s001.pdf: Figure S1 PTH ligand‐induced cAMP‐signaling responses in GP‐2.3 cells Time course of the cAMP‐dependent luminescence response measured at 2‐minute intervals in the presence of each ligand at 10 nM (Ligand on‐phase) and B) Time course of the cAMP‐dependent luminescence response measured at 2‐minute intervals after washout of unbound ligand (Ligand wash‐out phase). GP‐2.3 cells preloaded with luciferin were treated with a concentration of PTH ligand at a concentration of 10 nM for 30 min, and cAMP‐dependent luminescence was measured at two‐minute intervals (ligand‐on phase). The cells were then removed from the plate reader, rinsed twice with media to remove unbound ligand, and then fresh media containing luciferin but lacking ligand was added and luminescence was assessed for additional 90 min (Ligand wash‐out phase). Data are means (± SEM) of four experiments, each performed in triplicate. Figure S2. In vivo calcemic actions of M‐PTH/PTHrP hybrid analogs in normal rats. The indicated M‐PTH/PTHrP hybrid analogs (sequences are shown in Figure 1) along with PTH(1–34) and PTHrP(1–36) controls, were administered at the indicated doses by i.v. injection, and at the indicated time points blood was collected from the tail vein and measured for ionized calcium (Ca^2+). Panels A‐C represent three separate experiments. Data are means ± SEM; n = 6 or 4 (80 nmol/kg of M‐PTH(1‐11)/PTHrP(12–36), M‐PTH(1‐14)/PTHrP(12–36), M‐PTH(1‐17)/PTHrP(18–36) and 1.25 nmol/kg of M‐PTH(1–30)/PTHrP(31–36)). *p < 0.05 versus Vehicle. Figure S3. Effects of 11 days treatment (12 days study) of M‐PTH/PTHrP on serum 1,25(OH) 2 Vitamin‐D3, urinary deoxypyridinoline (Dpd) and serum FGF23 in TPTX rats. Serum and urine samples obtained from the TPTX and sham control rats of the two‐week daily‐administration experiment shown in Figure 4 were analyzed by ELISA for the indicated markers. A) serum 1,25(OH)2Vitamin‐D3. B) urinary deoxypyridinoline (DpD)/Cre. C) serum FGF23. […]

[2] = biological target: T1, human PTHR1 (RG conformation) (Homo sapiens, UniProt Q03431); test: Competition binding to the RG conformation of PTHR1
T1 construct: expressed in transfected cells; host or cells: COS-7 cells (transient co-transfection; membranes)
T1 sequence (Q03431 27-593): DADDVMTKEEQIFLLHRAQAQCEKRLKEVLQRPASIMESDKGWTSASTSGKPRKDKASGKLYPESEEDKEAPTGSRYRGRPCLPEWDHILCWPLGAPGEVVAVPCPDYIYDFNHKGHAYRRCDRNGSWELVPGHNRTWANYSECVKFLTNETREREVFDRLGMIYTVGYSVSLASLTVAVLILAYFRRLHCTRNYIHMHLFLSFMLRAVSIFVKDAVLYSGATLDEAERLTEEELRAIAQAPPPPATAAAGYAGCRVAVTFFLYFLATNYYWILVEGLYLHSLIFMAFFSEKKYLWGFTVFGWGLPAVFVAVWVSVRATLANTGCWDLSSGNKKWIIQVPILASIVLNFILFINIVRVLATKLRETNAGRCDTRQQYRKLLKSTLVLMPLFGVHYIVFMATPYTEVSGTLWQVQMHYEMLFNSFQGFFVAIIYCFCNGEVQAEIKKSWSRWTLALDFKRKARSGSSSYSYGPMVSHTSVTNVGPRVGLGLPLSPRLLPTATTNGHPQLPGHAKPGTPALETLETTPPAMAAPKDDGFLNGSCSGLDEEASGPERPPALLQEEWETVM

[3] = biological target: T2, human PTHR1 (R^0 conformation) (Homo sapiens, UniProt Q03431); test: Competition binding to the R^0 conformation of PTHR1
T2 construct: expressed in transfected cells; host or cells: COS-7 cells (transient transfection; membranes)
T2 sequence (Q03431 27-593): T1 sequence (Q03431 27-593)

human PTHR1 = biological target: T3, human PTHR1 (Homo sapiens, UniProt Q03431); test: GloSensor cAMP signaling assay in GP‐2.3 cells; format: cell-based
T3 construct: expressed in transfected cells
T3 sequence (Q03431 27-593): T1 sequence (Q03431 27-593)
Procedure: GP‐2.3 cells, an HEK‐293 cell‐ (ATCC CRL‐1573) derived cell line that stably expresses the luciferase‐based pGloSensor‐22F (GloSensor) cAMP reporter plasmid (Promega Corp., […], USA) along with the human PTHR1, were cultured in DMEM (Thermo Fisher Scientific, Waltham, MA, USA) supplemented with FBS (10%). Cells were seeded into white 96‐well plates for GloSensor cAMP assays, and used for assay 2 to 3 days after the monolayer became confluent.16 UGS‐56 cells were derived from the UMR106 rat osteoblastic cell line by stably transfecting the cells to express the GloSensor‐cAMP reporter. B64 cells are a derivative of the porcine kidney cell line, LLC‐PK1 that stably expresses the human PTHR1. COS‐7 cells (ATCC CRL‐1661) were seeded into 10‐cm dishes and transiently transfected to express the human PTHR1 with or without a high‐affinity, negative‐dominant Gαs subunit; 2 days after transfection, the cells were harvested for membrane preparations.13 All transfections were performed using the Fugene HD reagent (Promega Corp.).
Changes in cAMP levels were assessed in intact GP‐2.3 or UGS‐56 cells via the (GloSensor) cAMP reporter. The intact cells in white 96‐well plates were preloaded with luciferin in CO2‐independent culture media (Thermo Fisher) for 20 min at room temperature, then treated with a test ligand diluted in the same media and placed into a Envision plate reader (PerkinElmer, Waltham, MA, USA) for an additional 30 min, during which time cAMP‐dependent luminescence was measured at 2‐min intervals (ligand‐on phase). […] For washout responses, the cells were treated as above, and after the ligand‐on phase, the plate was removed from the plate reader, the cells were rinsed with media, then fresh media containing only luciferin was added and luminescence was measured for an additional 90 min (washout phase). EC50 values were determined using the 4‐parameter sigmoidal dose–response equation in Prism 8.0 (GraphPad Software, Inc., La Jolla, CA, USA).
The cells were then removed from the plate reader, rinsed twice with media to remove unbound ligand, and then fresh media containing luciferin but lacking ligand was added and luminescence was assessed for additional 90 min (Ligand wash‐out phase). Data are means (± SEM) of four experiments, each performed in triplicate. Figure S2. […] Panels A‐C represent three separate experiments. […] Figure S3. […] Serum and urine samples obtained from the TPTX and sham control rats of the two‐week daily‐administration experiment shown in Figure 4 were analyzed by ELISA for the indicated markers. A) serum 1,25(OH)2Vitamin‐D3. B) urinary deoxypyridinoline (DpD)/Cre. C) serum FGF23. […] Serum and urine samples obtained from the TPTX and sham control rats of the two‐week daily‐administration experiment shown in Figure 4 were analyzed for total inorganic phosphorus (Pi). […] Figure S5. […] B) The same peptides were assessed at a concentration of 3 nM for the capacity to stimulate cAMP formation in HKRK‐B64 cells (LLC‐PK1 cells stably expressing the hPTHR1, cAMP measured by RIA). […] Data in A and B are means (±SEM) of three experiments, each performed in triplicate or quadruplicate. […] D) The same analogs as in C were assessed at a 3.0 nM concentration for the capacity to stimulate cAMP formation in HKRK‐B64 cells. Data are means (±SEM) of three experiments, each performed in duplicate. […] Data are means (±SEM) of duplicate determinations of a single experiment representative of three others. Click here for additional data file.

Row | Compound | Serum levels of FGF23 ([1]; M‐PTH/PTHrP at 4.0 and 8.0 nmol/kg s.c., alfacalcidol at 0.2 μg/kg oral, daily, ELISA) | sCa levels ([1]; daily oral 0.2 μg/kg) | uCa excretion ([1]; daily oral 0.2 μg/kg, 0‐ to 8‐ and 8‐ to 24‐hour intervals) | sPi levels ([1]; daily oral, especially at the 0.2 μg/kg dose) | IC50 [2] | IC50 [3] | Emax (human PTHR1)
1 | C=C1/C(=C\C=C2/CCC[C@]3(C)[C@@H]([C@H](C)CCCC(C)C)CC[C@@H]23)C[C@@H](O)C[C@@H]1O [alfacalcidol, 1α‐hydroxycholecalciferol] | significantly increased | comparable to those of the sham group | high uCa excretion levels | normalized sPi levels |  |  | 
2 | AVAEIQLMHQRAKWLNSMERVEWLRKKLQDIHTAEI [M‐PTH(1‐30)/PTHrP(31‐36)] |  |  |  |  | 0.21 ± 0.03 nM | 2.98 ± 0.48 nM | 106 ± 4%
3 | AVAEIQLMHQRAKWLNSMRRRFFLHHLIAEIHTAEI [M‐PTH(1‐18)/PTHrP(19‐36)] |  |  |  |  | 0.13 ± 0.02 nM | 1.66 ± 0.22 nM | 107 ± 5%
4 | AVAEIQLMHQRAKWLNSMERVEFLHHLIAEIHTAEI [M‐PTH(1‐22)/PTHrP(23‐36)] |  |  |  |  | 0.67 ± 0.02 nM | 7.8 ± 2.55 nM | 104 ± 4%
5 | AVAEIQLMHQRGKSIQDLRRRFFLHHLIAEIHTAEI [M‐PTH(1‐11)/PTHrP(12‐36)] |  |  |  |  | 0.55 ± 0.15 nM | 2.14 ± 0.47 nM | 103 ± 3%
6 | AVAEIQLMHQRAKWLNSLRRRFFLHHLIAEIHTAEI [M‐PTH(1‐17)/PTHrP(18‐36)] |  |  |  |  | 0.23 ± 0.02 nM | 1.91 ± 0.39 nM | 105 ± 5%
7 | AVAEIQLMHQRAKWLNSMERVEWLRKLIAEIHTAEI [M‐PTH(1‐26)/PTHrP(27‐36)] |  |  |  |  | 0.13 ± 0.04 nM | 1.73 ± 0.75 nM | 106 ± 5%

Reference: publication PMC7340446, “Optimization of PTH/PTHrP Hybrid Peptides to Derive a Long‐Acting PTH Analog (LA‐PTH)” (JBMR Plus, 2020)
